Among the data in ChEMBL document CHEMBL4665709, “Rational Avoidance of Protease Cleavage Sites and Symmetrical End-Tagging Significantly Enhances the Stability and Therapeutic Potential of Antimicrobial Peptides” (J Med Chem, 2020) are selectivity ratio, Activity and Stabilty values, retold here.

Active and inactive are the calls of the source. The calls are words filed in the database; no cut-off is given here. Where a SMILES comes first, the peptide text is derived from it.

Data set [1] can be described thus: Therapeutic index, ratio of MHC for human RBC to geometric mean of peptide MIC for Escherichia coli UB1005. It is filed as toxicity. The conditions noted are these: human red blood cells (RBC), read-out: TI.
For another data set, the system named is Staphylococcus aureus. Kind of data set: Antibacterial activity against Staphylococcus aureus 29213 with 0.0625-2 mg/mL proteinase K for 1 hr followed by test compound addition measured after 4 to 8 hrs by CLSI-based broth microdilution method. It is filed as functional, organism-based. The conditions noted are these: time hrs 4-8. (Broth dilution looks for growth in wells or tubes with falling amounts of substance.)

The next data set deals with Trypsin (Homo sapiens, UniProt P07477+P07478+P35030). Kind of data set: Stability of compound assessed as trypsin (unknown origin)-mediated drug degradation after 8 hrs by RP-HPLC analysis. The format is ADME, protein assay.

`CC[C@H](C)[C@H](N)C(=O)N[C@H](C(=O)N[C@H](C(=O)N[C@@H](CS)C(=O)N[C@@H](CCCNC(=N)N)C(=O)N[C@@H](CCCCN)C(=O)N1CCC[C@H]1C(=O)N[C@H](C(=O)N[C@H](C(=O)N[C@@H](CS)C(=O)N[C@@H](CCCNC(=N)N)C(=O)N[C@@H](CCCCN)C(=O)N1CCC[C@H]1C(=O)N[C@H](C(=O)N[C@H](C(=O)N[C@@H](CS)C(=O)N[C@@H](CCCNC(=N)N)C(=O)N[C@@H](CCCCN)C(=O)N1CCC[C@H]1C(=O)N[C@H](C(=O)N[C@H](C(=O)N[C@@H](CS)C(=O)N[C@@H](CCCNC(=N)N)C(=O)N[C@@H](CCCCN)C(=O)N1CCC[C@H]1C(=O)N[C@H](C(=O)N[C@H](C(=O)N[C@H](C(N)=O)[C@@H](C)CC)[C@@H](C)CC)[C@@H](C)CC)[C@@H](C)CC)[C@@H](C)CC)[C@@H](C)CC)[C@@H](C)CC)[C@@H](C)CC)[C@@H](C)CC)[C@@H](C)CC)[C@@H](C)CC` (H-IIICRKPIICRKPIICRKPIICRKPIII-NH2): the selectivity ratio in data set [1] came to 57. In the data set with Staphylococcus aureus, the outcome was Active. Besides, the Stabilty result at Trypsin is “Stable”.
